From paper PMC5228037, “Discovery and Mechanistic Characterization of Selective Inhibitors of H2S-producing Enzyme: 3-Mercaptopyruvate Sulfurtransferase (3MST) Targeting Active-site Cysteine Persulfide” (Scientific Reports, 2017)

Molecular target: T1, 3MST in cell lysate of 3MST-overexpressing HEK293 cells (Mus musculus, UniProt Q99J99)
T1 construct: expressed in transfected cells; host or cells: HEK293 (transient, 3MST/pCI)
T1 sequence (Q99J99 1-297): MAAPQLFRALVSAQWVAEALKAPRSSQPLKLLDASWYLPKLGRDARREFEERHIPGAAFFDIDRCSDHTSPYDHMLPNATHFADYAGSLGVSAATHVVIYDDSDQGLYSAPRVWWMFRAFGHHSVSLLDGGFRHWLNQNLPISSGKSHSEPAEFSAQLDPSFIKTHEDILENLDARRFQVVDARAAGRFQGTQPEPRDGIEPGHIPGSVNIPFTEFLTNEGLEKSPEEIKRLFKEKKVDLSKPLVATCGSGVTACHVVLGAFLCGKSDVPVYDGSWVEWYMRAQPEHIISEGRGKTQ
Test: Inhibitory activity in lysate of m3MST-overexpressing HEK293 cells by gas chromatography
Format: biochemical
Details: 10 μM compound, 100 μM 3MP, 100 μM DTT, 37 °C 15 min
Experimental: Figure 2 Selectivity assessment of hit compounds for 3MST over other H2S/polysulfides-producing enzymes and rhodanese. (a) 3MST-Inhibitory activity of hit compounds at 10 and 100 μM in cell lysate of 3MST-expressing HEK293 cells. 100 μM 3MP and 100 μM DTT were added to the solution containing 0.1% DMSO as a cosolvent, and the mixture was incubated at 37 °C for 15 min. H2S production was measured by gas chromatography. All data are presented as the mean ± S.D. (100 μM: n = 3 or 4; 10 μM: n = 3). (b) Selectivity assessment of hit compounds at 100 μM towards CBS and CSE. Only DMSO was added to the control sample instead of DMSO solution containing hit compounds. H2S production was monitored by gas chromatography. All data are presented as the mean (n = 3). (c) Detection method for rhodanese activity (Sörbo method). (d) Selectivity assessment of hit compounds towards rhodanese. The results are mean ± S.D. (n = 4, three times). These values were determined based upon the absorbance of [Fe(SCN)3] at 460 nm (Sӧrbo method). […] (e) Fluorescence confocal microscopic images of live COS7 cells transfected with 3MST or an empty vector[9] as a control. […] F/F0 was calculated by dividing the fluorescence intensity of cells after addition of 500 μM 3MP (10 min) by that of cells before addition of 500 μM 3MP (Pre), then the mean F/F0 was determined from 5 cells. […]

Row | inhibition at 10 µM | Structure (SMILES)
1 | 80 to 90% | NC(=O)c1ccsc1NC(=O)CSc1nc2ccccc2c(=O)[nH]1 [compound 1]
2 | 80 to 90% | Cc1cc(=O)[nH]c(SCC(=O)c2cccc3ccccc23)n1 [compound 3]
